Experimental data taken from patent publication US11072588B2, “Barbituric acid derivatives comprising cationic and lipophilic groups” (UNIVERSITETET I TROMSØ—NORGES ARKTISKE UNIVERSITET, priority 2017, dated 2021).
In brackets after ≈: the same amount, converted by molar mass. Like-named read-outs stand apart in the source and are kept apart here.

Key:
S. aureus IHT 99040 = assay: MIC, multi-resistant clinical isolate; format: cell-based, Staphylococcus aureus; details: for selectivity index (EC50/MIC): RBC EC50 / MIC; for MIC: Staphylococcus aureus, IHT99040, read-out: Antimicrobial activity (MIC)
Procedure: (§1) Working solutions of the test derivatives were prepared with up to 100% DMSO and stored at −20° C. If necessary, the solutions were heated to 40-80° C. before testing to facilitate complete dissolution. Double-distilled water was used in all dilutions prepared. […] A microdilution susceptibility test was used for MIC determination according to Clinical and Laboratory Standards Institute, “Methods for Dilution Antimicrobial Sisceptibility Tests for Bacteria That Graw Aerobically”, Approved Standard M07-A9, edition 2012, with modifications as described by Igumnova et al (Bioorg Med Chem, 2016, 24 (22), 5884-5894).
(§2) Briefly, the bacterial inoculum was adjusted to approximately 2.5-3×10^4 cells/mL in Mueller-Hinton broth (MHB, Difco Laboratories, USA), and incubated in a ratio of 1:1 with test derivatives in polystyrene 96-well flat-bottom microplates (NUNC, Roskilde, Denmark). Positive growth control (without test derivatives) and negative control (without bacteria) were included. The reference antibiotic was oxytetracycline hydrochloride (Sigma Aldrich, Saint Louis, Mo., USA). The microplates were incubated in an EnVision microplate reader (Perkin-Elmer, Turku, Finland) placed in an incubator set to 35° C. for 48 h. The MIC value was defined as the lowest concentration of derivative resulting in no bacterial growth as determined by OD600 measurement. All derivatives were tested in three parallels.
(§3) The MIC was determined as explained above with some exceptions; working solutions of test derivatives were prepared from concentrated DMSO stocks stored at room temperature, the density of the bacterial inoculum was increased 40× to 1-1.2×10^6 cells/mL, enterococci were incubated in Brain Heart Infusion broth (BHIB, Difco Laboratories, USA), the microplates were incubated for 24 h, and the derivatives were tested in four parallels.

S. aureus N315 = assay: MIC, multi-resistant clinical isolate; format: cell-based, Staphylococcus aureus; details: for selectivity index (EC50/MIC): RBC EC50 / MIC, S. aureus N315; for MIC: Staphylococcus aureus, N315, read-out: Antimicrobial activity (MIC)
Procedure: as §1, §2, §3

S. aureus NCTC 10442 = assay: MIC, multi-resistant clinical isolate; format: cell-based, Staphylococcus aureus; details: for selectivity index (EC50/MIC): RBC EC50 / MIC, S. aureus NCTC 10442; for MIC: Staphylococcus aureus, NCTC10442, read-out: Antimicrobial activity (MIC)
Procedure: as §1, §2, §3

S. aureus strain 85/2082 = assay: MIC, multi-resistant clinical isolate; format: cell-based, Staphylococcus aureus; details: for selectivity index (EC50/MIC): RBC EC50 / MIC, S. aureus strain 85/2082; for MIC: Staphylococcus aureus, 85/2082, read-out: Antimicrobial activity (MIC)
Procedure: as §1, §2, §3

S. aureus strain WIS = assay: MIC, multi-resistant clinical isolate; format: cell-based, Staphylococcus aureus; details: for selectivity index (EC50/MIC): RBC EC50 / MIC, S. aureus strain WIS; for MIC: Staphylococcus aureus, read-out: Antimicrobial activity (MIC)
Procedure: as §1, §2, §3

E. coli 50579417 = assay: MIC, multi-resistant clinical isolate; format: cell-based, Escherichia coli; details: for MIC: Escherichia coli, read-out: Antimicrobial activity (MIC); for selectivity index (EC50/MIC): RBC EC50 / MIC
E. coli 50676002 = assay: MIC, multi-resistant clinical isolate; format: cell-based, Escherichia coli; details: for selectivity index (EC50/MIC): RBC EC50 / MIC
E. coli 50739822 = assay: MIC, multi-resistant clinical isolate; format: cell-based, Escherichia coli; details: for MIC: Escherichia coli, read-out: Antimicrobial activity (MIC); for selectivity index (EC50/MIC): RBC EC50 / MIC
A. baumanii K12-21 = assay: MIC, multi-resistant clinical isolate; format: cell-based, Acinetobacter baumannii; details: for MIC: Acinetobacter baumannii, K1221, read-out: Antimicrobial activity (MIC); for selectivity index (EC50/MIC): RBC EC50 / MIC
Procedure: as §1, §2, §3

A. baumanii K44-35 = assay: MIC, multi-resistant clinical isolate; format: cell-based, Acinetobacter baumannii; details: for MIC: Acinetobacter baumannii, K4435, read-out: Antimicrobial activity (MIC); for selectivity index (EC50/MIC): RBC EC50 / MIC
Procedure: as §1, §2, §3

A. baumanii K47-42 = assay: MIC, multi-resistant clinical isolate; format: cell-based, Acinetobacter baumannii; details: for MIC: Acinetobacter baumannii, K4742, read-out: Antimicrobial activity (MIC); for selectivity index (EC50/MIC): RBC EC50 / MIC
Procedure: as §1, §2, §3

A. baumanii K55-13 = assay: MIC, multi-resistant clinical isolate; format: cell-based, Acinetobacter baumannii; details: for MIC: Acinetobacter baumannii, K5513, read-out: Antimicrobial activity (MIC); for selectivity index (EC50/MIC): RBC EC50 / MIC
Procedure: as §1, §2, §3

A. baumanii K63-58 = assay: MIC, multi-resistant clinical isolate; format: cell-based, Acinetobacter baumannii; details: A. baumanii K63-58, resistant to colistin; for MIC: Acinetobacter baumannii, K6358, 24 h, read-out: Antimicrobial activity (MIC); for selectivity index (EC50/MIC): RBC EC50 / MIC
Procedure: as §1, §2, §3

[1] = system: human metastatic melanoma (A2058, ATCC CRL-11147) cells; assay: Anti-cancer activity against A2058 cells; format: cell-based; details: A2058, read-out: Anti-cancer IC50
Procedure: Cytotoxicity of the test compounds was evaluated after 72 hour exposure to human metastatic melanoma (A2058, ATCC CRL-11147) cells.
A2058 cells were grown overnight (2,000 cells/well), and then incubated with the test compounds (range of concentrations) diluted in MEM Earle's supplemented with gentamycin (10 μg/mL), non-essential amino acids (1%), sodium pyruvate (1 mM), L-alanyl-Lglutamine (2 mM), but without FBS (total volume was 100 μl) for […]. Ten μL of CellTiter 96® AQueous One Solution Reagent (Promega, Madison, Wis., USA) was added, and the plates were then further incubated for 1 hour.
Absorbance was measured at 485 nm in a DTX 880 Multimode Detector. Results were calculated as % survival compared to negative (assay media) and positive (Triton X-100; Sigma-Aldrich) controls.

[2] = system: antibiotic susceptible Gram-positive and Gram-negative reference strains; assay: MIC assay, ranges over the reference strains; format: cell-based
Procedure: as §1, §2

[3] = Escherichia coli, E. coli 50676002, read-out: Antimicrobial activity (MIC)
[4] = reference strains, range, read-out: MIC values against the Gram-negative bacteria E. coli and P. aeruginosa

| SMILES | selectivity index (EC50/MIC) (S. aureus IHT 99040) | MIC (S. aureus IHT 99040) [µg/mL] | selectivity index (EC50/MIC) (S. aureus N315) | MIC (S. aureus N315) [µg/mL] | selectivity index (EC50/MIC) (S. aureus NCTC 10442) | MIC (S. aureus NCTC 10442) [µg/mL] | selectivity index (EC50/MIC) (S. aureus strain 85/2082) | MIC (S. aureus strain 85/2082) [µg/mL] | selectivity index (EC50/MIC) (S. aureus strain WIS) | MIC (S. aureus strain WIS) [µg/mL] | MIC (E. coli 50579417) [µg/mL] | selectivity index (EC50/MIC) (E. coli 50579417) | selectivity index (EC50/MIC) (E. coli 50676002; E. coli 50676002) | MIC (E. coli 50739822) [µg/mL] | selectivity index (EC50/MIC) (E. coli 50739822) | MIC (A. baumanii K12-21) [µg/mL] | selectivity index (EC50/MIC) (A. baumanii K12-21) | MIC (A. baumanii K44-35) [µg/mL] | selectivity index (EC50/MIC) (A. baumanii K44-35) | MIC (A. baumanii K47-42) [µg/mL] | also measured |
| --- | --- | --- | --- | --- | --- | --- | --- | --- | --- | --- | --- | --- | --- | --- | --- | --- | --- | --- | --- | --- | --- |
| N=C(N)NCCCCN1C(=O)N(CCCCNC(=N)N)C(=O)C(Cc2ccc(F)c3ccccc23)(Cc2ccc(F)c3ccccc23)C1=O [8(v), 1,1′-(4,4′-(5,5-bis((4-fluoronaphthalen-1-yl)methyl)-2,4,6-trioxodihydropyrimidine-1,3(2H,4H)-diyl)bis(butane-4,1-diyl))diguanidine] | (44) | 2 (≈ 2.98 µM) | (44) | 2 (≈ 2.98 µM) | (44) | 2 (≈ 2.98 µM) | (44) | 2 (≈ 2.98 µM) | (44) | 2 (≈ 2.98 µM) | 8 (≈ 11.9 µM) | (11) | (22) | 8 (≈ 11.9 µM) | (11) | 8 (≈ 11.9 µM) | (11) | 8 (≈ 11.9 µM) | (11) | 8 (≈ 11.9 µM) | MIC (E. coli 50676002; [3]): 4 µg/mL (≈ 5.96 µM); selectivity index (EC50/MIC) (A. baumanii K47-42): (11); MIC (A. baumanii K55-13): 8 µg/mL (≈ 11.9 µM); selectivity index (EC50/MIC) (A. baumanii K55-13): (11); MIC (A. baumanii K63-58): 8 µg/mL (≈ 11.9 µM); selectivity index (EC50/MIC) (A. baumanii K63-58): (11); IC50 [1]: 8 µg/mL (≈ 11.9 µM); MIC [2, 4]: 1 to 4 µg/mL (≈ 1.49 to 5.96 µM) |
| CC(C)(C)c1ccc(CC2(Cc3ccc(C(C)(C)C)cc3)C(=O)N(CCCCN)C(=O)N(CCCCN)C2=O)cc1 [Compound 7(i), 1,3-bis(4-aminobutyl)-5,5-bis(4-tertbutylbenzyl) pyrimidin-2,4,6(1H,3H,5H)-trione] | (18) | 8 (≈ 14.2 µM) | (18) | 8 (≈ 14.2 µM) | (18) | 8 (≈ 14.2 µM) | (18) | 8 (≈ 14.2 µM) | (18) | 8 (≈ 14.2 µM) | 8 (≈ 14.2 µM) | (18) | (36) | 8 (≈ 14.2 µM) | (18) | 16 (≈ 28.4 µM) | (9) | 32 (≈ 56.9 µM) | (4) | 16 (≈ 28.4 µM) | MIC (E. coli 50676002; Escherichia coli, 50676002, read-out: Antimicrobial activity (MIC)): 4 µg/mL (≈ 7.11 µM); selectivity index (EC50/MIC) (A. baumanii K47-42): (9); MIC (A. baumanii K55-13): 16 µg/mL (≈ 28.4 µM); selectivity index (EC50/MIC) (A. baumanii K55-13): (9); MIC (A. baumanii K63-58): 16 µg/mL (≈ 28.4 µM); selectivity index (EC50/MIC) (A. baumanii K63-58): (9); IC50 [1]: 1 µg/mL (≈ 1.78 µM); MIC ([2]; range over S. aureus, C. glutamicum, E. coli, P. aeruginosa reference strains, read-out: MIC values against all the reference strains): 1 to 8 µg/mL (≈ 1.78 to 14.2 µM) |
| CC(C)(C)c1ccc(CC2(Cc3ccc(C(C)(C)C)cc3)C(=O)N(CCCCNC(=N)N)C(=O)N(CCCCNC(=N)N)C2=O)cc1 [Compound 8(i), 1,1′-(4,4′-(5,5-bis(4-tert-butylbenzyl)-2,4,6-trioxodihydropyrimidine-1,3(2H,4H)-diyl)bis(butane-4,1-diyl))diguanidine] | (39) | 2 (≈ 3.09 µM) | (39) | 2 (≈ 3.09 µM) | (39) | 2 (≈ 3.09 µM) | (39) | 2 (≈ 3.09 µM) | (39) | 2 (≈ 3.09 µM) | 4 (≈ 6.18 µM) | (19) | (19) | 4 (≈ 6.18 µM) | (19) | 4 (≈ 6.18 µM) | (19) | 8 (≈ 12.4 µM) | (10) | 8 (≈ 12.4 µM) | MIC (E. coli 50676002; [3]): 4 µg/mL (≈ 6.18 µM); selectivity index (EC50/MIC) (A. baumanii K47-42): (10); MIC (A. baumanii K55-13): 8 µg/mL (≈ 12.4 µM); selectivity index (EC50/MIC) (A. baumanii K55-13): (10); MIC (A. baumanii K63-58): 4 µg/mL (≈ 6.18 µM); selectivity index (EC50/MIC) (A. baumanii K63-58): (19); IC50 [1]: 2 µg/mL (≈ 3.09 µM); MIC [2, 4]: 1 to 4 µg/mL (≈ 1.55 to 6.18 µM) |
